# Laboratory results reported in PubChem BioAssay AID1996.
# Conditions: buffer; pH 7.4; 200.0 µM
row,SMILES,solubility kinetic
1,CC(OC(=O)CSc1ccc(F)cc1)C(=O)NC1(C#N)CCCCC1 (stereo not given),42.2 µg/mL
2,O=C1SCCC1NC(=O)C(c1ccccc1)c1ccccc1 (stereo not given),> 46.7 µg/mL
3,O=C(CCNC(=O)c1ccccc1)NCCCc1ccccc1,> 46.6 µg/mL
4,COCCNC(=O)c1oc2ccc3c(c2c1C)C(O)CC(C)(C)O3 (stereo not given),> 50 µg/mL
5,COc1ccc(OCC(O)CNC(=O)Nc2ccc(C(C)(C)C)cc2)cc1 (stereo not given),< 0.4 µg/mL
6,Cc1ccc(C)c(OC(=O)C2CSC3(C)CCC(=O)N23)c1C (stereo not given),44.2 µg/mL
7,CCOC(=O)C1CCCN(C(=O)COc2ccc(S(=O)(=O)N3CCOCC3)cc2)C1 (stereo not given),> 66.1 µg/mL
8,OCc1c(Cl)nc2ccccn12,> 27.4 µg/mL
9,COc1cccc(CNc2ncc(-c3ccccc3)n2C)c1,32.9 µg/mL
10,NC(=O)c1cccnc1Oc1ccc(Cl)cc1,> 37.3 µg/mL
11,Cc1cc(C)cc(NS(=O)(=O)c2ccc3[nH]c(=O)ccc3c2)c1,1.5 µg/mL
12,CCCCN1C2=NC(c3ccccc3)CN2c2ccccc21.Cl (stereo not given),44.1 µg/mL
13,COC(=O)C1CCN(C(=O)COc2ccc(S(=O)(=O)N3CCOCC3)cc2Cl)CC1,> 69.1 µg/mL
14,O=c1[nH]c(=S)n(C2CC2)c(O)c1C=NCCc1ccccc1,< 0.2 µg/mL
15,NS(=O)(=O)c1ccc(NC(=O)c2c(F)cccc2Cl)cc1,13.3 µg/mL
16,COc1ccc(OCC(=O)NC2CCCCCCC2)cc1,37.7 µg/mL
17,CSc1ncc(-c2ccc(Cl)cc2)[nH]1,29.3 µg/mL
18,Cc1ccc(N2C(=O)CC(N3CCc4ccccc43)C2=O)cc1Cl (stereo not given),< 0.4 µg/mL
19,Br.Fc1cccc(CNCC2CCCO2)c1 (stereo not given),42.2 µg/mL
20,CNS(=O)(=O)c1ccc(NS(=O)(=O)c2ccccc2F)cc1,51 µg/mL

row,SMILES,solubility kinetic
1,COc1ccc(NC(=S)Nc2ccc(F)cc2)cc1,27.7 µg/mL
2,COc1ccc(-c2nc(N)nc(C(F)(F)F)c2-c2csc(C)n2)c(O)c1,2.6 µg/mL
3,Cc1noc(C(=O)Nc2ccc(F)c(Cl)c2)c1Cl,1.4 µg/mL
4,NC(=O)c1ccccc1N=Cc1cccnc1,> 33.8 µg/mL
5,Cc1ccc2cc(CNCCc3ccccc3C)c(=O)[nH]c2c1,40.7 µg/mL
6,CC(=O)c1ccc(OCCCC(=O)NC2CCCCC2C)cc1 (stereo not given),25.8 µg/mL
7,O=C(COC(=O)c1ccc(O)cc1)NC1CCCCCC1,> 43.7 µg/mL
8,Cc1ccc2sc(NC(=O)C3CC3)nc2c1C,1.3 µg/mL
9,COc1ccc(C(=O)N[C@H](C(=O)NCCc2ccc3c(c2)OCCO3)C(C)C)cc1,19.7 µg/mL
10,Cc1ccc(NS(=O)(=O)N2CCOCC2)cc1Cl,> 43.6 µg/mL
11,CCCCn1c(SCC(N)=O)nc2sc3c(c2c1=O)CCC3,1.9 µg/mL
12,O=C(COc1ccc(Cl)cc1Cl)c1ccc[nH]1,34.9 µg/mL
13,O=C1CSC(c2ccccc2)N1CCc1ccccc1 (stereo not given),29.6 µg/mL
14,CNC(=O)Nc1cccc(-c2ccnc(C)n2)c1,27.5 µg/mL
15,C=CCNC(=O)CC1Nc2c3ccccc3nc(=S)n2C1=O (stereo not given),> 47.2 µg/mL
16,COc1ccc(Cl)cc1NS(=O)(=O)c1cn(C)nc1C,> 47.4 µg/mL
17,C=CCOc1ccc(/C=C2\SC(N3CCCCC3)=NC2=O)cc1,< 0.4 µg/mL
18,CC(C)=NOc1nc(N(C)C)nc(N2CCOCC2)n1,41.9 µg/mL
19,CN(C)c1nc(-c2ccccc2)c2cc(Cl)ccc2n1,1 µg/mL
20,Cc1ccc(CONC(=O)c2cccc(C)c2)cc1,38.2 µg/mL

row,SMILES,solubility kinetic
1,Cc1ccnc(N2CCCC(C(=O)Nc3cccc(C)c3C)C2)n1 (stereo not given),0.6 µg/mL
2,O=S(=O)(CCN1CCSCC1)c1ccc(Cl)cc1,41.3 µg/mL
3,CC(C)NCC(O)c1ccc(NS(C)(=O)=O)cc1.Cl (stereo not given),> 46.3 µg/mL
4,O=S(=O)(Nc1ccncc1)c1ccc(Cl)c(Cl)c1,3.7 µg/mL
5,COc1ccc(Cl)cc1C(=O)OCC(=O)c1ccc[nH]1,8.4 µg/mL
6,O=C(COc1ccc(NC(=O)c2ccccc2)cc1)c1ccccc1,1.1 µg/mL
7,O=C(CNC(=O)c1cnccc1C(F)(F)F)c1cccc(Cl)c1,25.3 µg/mL
8,CCN(CC(=O)Nc1ccc(NC(C)=O)cc1)C(=O)c1ccc(=O)[nH]c1,50.4 µg/mL
9,O=C(NC1CCCCC1)[C@@H]1CSC2c3ccccc3C(=O)N21 (stereo not given in full),47 µg/mL
10,O=C(Nc1nc2ccsc2c(=O)s1)c1ccc(F)cc1Cl,< 0.4 µg/mL
11,CC(Sc1nnc(-c2ccccc2F)n1C1CC1)C(N)=O (stereo not given),> 46 µg/mL
12,CCOC(=O)CSC1=NN2CCS(=O)(=O)N=C2S1,> 46.4 µg/mL
13,Cc1cccc(-c2nnc(SCC(=O)NC3CC3)n2C)c1,> 45.4 µg/mL
14,Cc1ccc(C)c(NC(=O)c2cc3ccccc3o2)c1,10.9 µg/mL
15,Cc1ncc2c(n1)-c1cc(F)ccc1SC2,28.9 µg/mL
16,COc1cccc(CNc2ccc([N+](=O)[O-])cc2C)c1,1.3 µg/mL
17,C#CC[N+](C)(C)CC#Cc1ccc(C)cc1.[Br-],> 43.8 µg/mL
18,N#Cc1c(-c2ccccc2)cc(-c2ccccc2)nc1SCC(=O)O,> 52 µg/mL
19,Cl.c1cncc(CNC2CCCCC2)c1,> 34 µg/mL
20,COc1ccc(OC)c(-c2cc(C(=O)Nc3ccccc3C(N)=O)c3ccccc3n2)c1,5.9 µg/mL
